From PubChem BioAssay AID248 (DTP/NCI, 2004)
Where “and” joins values, the source holds several entries; their conditions need not be identical. Equal entries are not always repeated. Toxic doses and inconclusive results are not listed. No stated cut-off is given here; in the data, active means T/C of 150% or more; inactive means T/C below 125%.

Test system: L1210 leukemia ip in BDF1 mice, survival T/C
Assay: NCI In Vivo Anticancer Drug Screen. Data for tumor model L1210 Leukemia (intraperitoneal) in B6D2F1 (BDF1) mice
Conditions: endpoint: mean survival time, higher = longer survival
In short: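 Mice bearing the transplanted tumor received compound or vehicle. Survival of the treated group was divided by that of the vehicle-treated control group to give the ratio.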

[1] = dose: 100.0 mg/kg/injection, schedule: Q01DX001 (ip), vehicle: other
[2] = dose: 200.0 mg/kg/injection, schedule: Q01DX001 (ip), vehicle: other
[3] = dose: 400.0 mg/kg/injection, schedule: Q01DX001 (ip), vehicle: other
[4] = dose: 100.0 mg/kg/injection, schedule: Q01DX009 (ip), vehicle: water
[5] = dose: 100.0 mg/kg/injection, schedule: Q04DX003 (ip), vehicle: water
[6] = dose: 200.0 mg/kg/injection, schedule: Q04DX003 (ip), vehicle: water
[7] = dose: 400.0 mg/kg/injection, schedule: Q01DX009 (ip), vehicle: water
[8] = dose: 400.0 mg/kg/injection, schedule: Q04DX003 (ip), vehicle: water
[9] = dose: 100.0 mg/kg/injection, schedule: Q04DX003 (ip), vehicle: saline with Tween-80
[10] = dose: 200.0 mg/kg/injection, schedule: Q04DX003 (ip), vehicle: saline with Tween-80
[11] = dose: 400.0 mg/kg/injection, schedule: Q04DX003 (ip), vehicle: saline with Tween-80
[12] = dose: 100.0 mg/kg/injection, schedule: Q04DX002 (ip), vehicle: Klucel (hydroxypropylcellulose) (HPC)
[13] = dose: 200.0 mg/kg/injection, schedule: Q04DX002 (ip), vehicle: Klucel (hydroxypropylcellulose) (HPC)
[14] = dose: 400.0 mg/kg/injection, schedule: Q04DX002 (ip), vehicle: Klucel (hydroxypropylcellulose) (HPC)
[15] = dose: 100.0 mg/kg/injection, schedule: Q04DX003 (ip), vehicle: Klucel (hydroxypropylcellulose) (HPC)
[16] = dose: 200.0 mg/kg/injection, schedule: Q04DX003 (ip), vehicle: Klucel (hydroxypropylcellulose) (HPC)
[17] = dose: 400.0 mg/kg/injection, schedule: Q04DX003 (ip), vehicle: Klucel (hydroxypropylcellulose) (HPC)
[18] = dose: 50.0 mg/kg/injection, schedule: Q01DX001 (ip), vehicle: carboxymethylcellulose (CMC)
[19] = dose: 100.0 mg/kg/injection, schedule: Q01DX001 (ip), vehicle: carboxymethylcellulose (CMC)
[20] = dose: 200.0 mg/kg/injection, schedule: Q01DX001 (ip), vehicle: carboxymethylcellulose (CMC)

Measured: T/C

N=C(CC(=O)Nc1ccccn1)c1ccccc1
inactive: [1] 100 % of control | [2] 107 % of control | [3] 89 % of control

CCOc1ccc(NC(=O)N(O)C2(C#N)CCCCC2)cc1
inactive: [1] 93 % of control | [2] 96 % of control | [3] 93 % of control

COc1cc2c(cc1OC)C(OC)N(C)c1c-2ccc2cc(OC)c(OC)cc12 (stereo not drawn)
inactive: [4] 110 % of control | [5] 103 % of control | [6] 115 % of control | [7] 104 % of control and 122 % of control | [8] 113 % of control

OC(CC(O)(C(F)(F)F)C(F)(F)F)c1ccccc1 (stereo not drawn)
inactive: [9] 103 % of control | [10] 96 % of control | [11] 97 % of control

COc1cc(/C=N/N(c2ccccc2)C2CCS(=O)(=O)C2)ccc1O (stereo not drawn)
inactive: dose: 100.0 mg/kg/injection, schedule: Q04DX002 (ip), vehicle: saline 93 % of control | dose: 200.0 mg/kg/injection, schedule: Q04DX002 (ip), vehicle: saline 101 % of control | dose: 400.0 mg/kg/injection, schedule: Q04DX002 (ip), vehicle: saline 93 % of control

O=C(NNC(=O)C1C2CCCCC21)C1C2CCCCC21 (stereo not drawn)
inactive: dose: 100.0 mg/kg/injection, schedule: Q04DX003 (ip), vehicle: acetone 105 % of control | dose: 200.0 mg/kg/injection, schedule: Q04DX003 (ip), vehicle: acetone 91 % of control | dose: 400.0 mg/kg/injection, schedule: Q04DX003 (ip), vehicle: acetone 97 % of control

CC1CNC(=S)N1 (stereo not drawn)
inactive: [12] 106 % of control | [13] 103 % of control | [14] 106 % of control

OC1CC2CCC(C1)S2 (stereo not drawn)
inactive: dose: 50.0 mg/kg/injection, schedule: Q01DX001 (ip), vehicle: Klucel (hydroxypropylcellulose) (HPC) 100 % of control | dose: 100.0 mg/kg/injection, schedule: Q01DX001 (ip), vehicle: Klucel (hydroxypropylcellulose) (HPC) 105 % of control | dose: 200.0 mg/kg/injection, schedule: Q01DX001 (ip), vehicle: Klucel (hydroxypropylcellulose) (HPC) 96 % of control

O=C(O)C(Cl)c1ccccc1 (stereo not drawn)
inactive: dose: 25.0 mg/kg/injection, schedule: Q01DX009 (ip), vehicle: gum acacia 114 % of control | dose: 50.0 mg/kg/injection, schedule: Q01DX009 (ip), vehicle: gum acacia 109 % of control | dose: 100.0 mg/kg/injection, schedule: Q01DX009 (ip), vehicle: gum acacia 106 % of control | [15] 92 % of control | [9] 95 % of control | [16] 93 % of control | [10] 101 % of control | [17] 97 % of control | [11] 88 % of control

O=C(O)c1cc2ccccc2c2cc(Br)ccc12
inactive: dose: 100.0 mg/kg/injection, schedule: Q01DX009 (ip), vehicle: saline sonified 100 % of control | [15] 91 % of control | dose: 200.0 mg/kg/injection, schedule: Q01DX009 (ip), vehicle: saline sonified 97 % of control | [16] 108 % of control | [17] 103 % of control

Cc1cc(O)c(CN(C)C)cc1O
inactive: dose: 75.0 mg/kg/injection, schedule: Q01DX001 (ip), vehicle: saline 103 % of control | dose: 150.0 mg/kg/injection, schedule: Q01DX001 (ip), vehicle: saline 104 % of control

CS(=O)(=O)OCCN(Cc1ccc(OS(C)(=O)=O)cc1)S(C)(=O)=O
inactive: dose: 100.0 mg/kg/injection, schedule: Q01DX009 (ip), vehicle: saline with Tween-80 91 % of control | [9] 109 % of control | dose: 200.0 mg/kg/injection, schedule: Q01DX009 (ip), vehicle: saline with Tween-80 93 % of control | [10] 95 % of control | [11] 109 % of control

CC(C)N(C(C)C)S(C)(=O)=O
inactive: dose: 100.0 mg/kg/injection, schedule: Q04DX003 (ip), vehicle: saline 92 % of control

CCOC(=O)n1cnc2c(Cl)ncnc21
inactive: [1] 109 % of control | [2] 102 % of control | [3] 110 % of control

Cc1cc2ccccc2c[n+]1C
inactive: dose: 12.5 mg/kg/injection, schedule: Q01DX009 (ip), vehicle: saline 95 % of control | dose: 12.5 mg/kg/injection, schedule: Q04DX003 (ip), vehicle: saline 106 % of control | dose: 25.0 mg/kg/injection, schedule: Q01DX009 (ip), vehicle: saline 101 % of control | dose: 25.0 mg/kg/injection, schedule: Q04DX003 (ip), vehicle: saline 90 % of control | dose: 50.0 mg/kg/injection, schedule: Q01DX009 (ip), vehicle: saline 108 % of control | dose: 50.0 mg/kg/injection, schedule: Q04DX003 (ip), vehicle: saline 107 % of control

Cc1nccc2cc3c(cc12)c1ccccc1n3C
inactive: dose: 37.5 mg/kg/injection, schedule: Q04DX003 (ip), vehicle: Klucel (hydroxypropylcellulose) (HPC) 105 % of control | dose: 75.0 mg/kg/injection, schedule: Q04DX003 (ip), vehicle: Klucel (hydroxypropylcellulose) (HPC) 111 % of control | dose: 150.0 mg/kg/injection, schedule: Q04DX003 (ip), vehicle: Klucel (hydroxypropylcellulose) (HPC) 105 % of control | dose: 300.0 mg/kg/injection, schedule: Q04DX003 (ip), vehicle: Klucel (hydroxypropylcellulose) (HPC) 95 % of control

O=C(Nc1cccc([N+](=O)[O-])c1)c1ccc(Cl)cc1Cl
inactive: [9] 102 % of control | [10] 93 % of control | [11] 98 % of control

CCOC(=O)C(c1ccccc1)N(c1ccccc1)S(=O)(=O)c1ccc(C)cc1 (stereo not drawn)
inactive: [1] 116 % of control | [2] 98 % of control | [3] 101 % of control

CC(=O)Nc1nc(C)c(CCCN(Cc2ccccc2)C(C)=O)c(=O)[nH]1
inactive: dose: 75.0 mg/kg/injection, schedule: Q01DX001 (ip), vehicle: Klucel (hydroxypropylcellulose) (HPC) 96 % of control | dose: 150.0 mg/kg/injection, schedule: Q01DX001 (ip), vehicle: Klucel (hydroxypropylcellulose) (HPC) 99 % of control | dose: 300.0 mg/kg/injection, schedule: Q01DX001 (ip), vehicle: Klucel (hydroxypropylcellulose) (HPC) 92 % of control

COc1cc(Cl)ccc1NC(=O)Oc1ccc2ccccc2c1
inactive: [12] 108 % of control | [13] 90 % of control | [14] 104 % of control

COC(=O)/C=C/c1c[nH]c2nccnc12
inactive: [4] 98 % of control | [5] 101 % of control | dose: 200.0 mg/kg/injection, schedule: Q01DX009 (ip), vehicle: water 95 % of control | [6] 98 % of control | [7] 97 % of control | [8] 102 % of control

CC(C(=O)O)N1C(=O)C2C3C=CC(C3)C2C1=O (stereo not drawn)
inactive: [9] 94 % of control | [10] 102 % of control | [11] 97 % of control

CC(=O)Nc1ccc(/C=N/Nc2c3ccccc3nc3ccccc23)cc1
inactive: dose: 100.0 mg/kg/injection, schedule: Q01DX001 (ip), vehicle: saline 108 % of control

O/N=C/c1cccn1-c1cccc2c(-n3cccc3/C=N/O)cccc12
inactive: dose: 25.0 mg/kg/injection, schedule: Q04DX002 (ip), vehicle: Klucel (hydroxypropylcellulose) (HPC) 101 % of control | dose: 50.0 mg/kg/injection, schedule: Q04DX002 (ip), vehicle: Klucel (hydroxypropylcellulose) (HPC) 93 % of control | [12] 97 % of control

Cc1ccc(S)cc1.[Pb]
inactive: [18] 98 % of control | [19] 93 % of control | [20] 103 % of control | dose: 400.0 mg/kg/injection, schedule: Q01DX001 (ip), vehicle: carboxymethylcellulose (CMC) 93 % of control

CC(CC#N)c1ccc[nH]1 (stereo not drawn)
inactive: dose: 5.0 mg/kg/injection, schedule: Q01DX001 (ip), vehicle: carboxymethylcellulose (CMC) 115 % of control | dose: 10.0 mg/kg/injection, schedule: Q01DX001 (ip), vehicle: carboxymethylcellulose (CMC) 111 % of control | dose: 20.0 mg/kg/injection, schedule: Q01DX001 (ip), vehicle: carboxymethylcellulose (CMC) 117 % of control | dose: 40.0 mg/kg/injection, schedule: Q01DX001 (ip), vehicle: carboxymethylcellulose (CMC) 113 % of control | [18] 109 % of control | dose: 80.0 mg/kg/injection, schedule: Q01DX001 (ip), vehicle: carboxymethylcellulose (CMC) 96 % of control | [19] 102 % of control | [20] 107 % of control
